Patent US11590139B2, “Substituted aminopurine compounds, compositions thereof, and methods of treatment therewith” (Signal Pharmaceuticals, LLC, priority 2014, dated 2023)
Like-named read-outs stand apart in the source and are kept apart here.

Test system: Lox-IMVI melanoma cell line
Assay: Lox-IMVI anti-proliferative assay (growth inhibition, Cell Titer-Glo)
Assay type: cell-based, human
Conditions: Homo sapiens
In short: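 Viability read by ATP luminescence (Cell Titer-Glo) at t0 and after 72 h at 37 °C, 5% CO2, with normalisation to DMSO-treated cells. Compound tested at 0.5 nM–10 μM in 3-fold, 10-point series (0.2% DMSO final) on Lox-IMVI in RPMI+10% FBS; IC50 by 4-parameter sigmoidal fit.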

[1] = Lox-IMVI melanoma cell line, anti-proliferative assay, read-out: Activity (IC50 activity level)
[2] = IC50 activity level in the cell-based Lox-IMVI anti-proliferative assay, read-out: Activity
[3] = Lox-IMVI anti-proliferative assay, IC50 activity level, read-out: Activity

Structure (SMILES) | IC50 [2] [nM] | also measured
N#Cc1cc(F)c(Nc2nc3cnc(N[C@H]4CCC[C@H](O)C4)nc3n2[C@H]2CC[C@@H](C(N)=O)CC2)c(Cl)c1 [Example 689, (1R,4s)-4-(8-(2-chloro-4-cyano-6-fluorophenylamino)-2-((1S,3S)-3-hydroxycyclohexylamino)-9H-purin-9-yl)cyclohexanecarboxamide] |  | IC50 [1]: 250 to 500 nM
CCN1CCC[C@@H](Nc2ncc3nc(Nc4c(Cl)cc(C(F)(F)F)cc4Cl)n([C@H]4CC[C@@H](C(N)=O)CC4)c3n2)C1 [Example 737, (1S,4s)-4-(8-(2,6-dichloro-4-(trifluoromethyl)phenylamino)-2-((R)-1-ethylpiperidin-3-ylamino)-9H-purin-9-yl)cyclohexanecarboxamide] |  | IC50 [1]: > 1000 nM
NC(=O)[C@H]1CC[C@@H](n2c(Nc3c(F)cc(F)cc3Cl)nc3cnc(N[C@@H]4CCCN(c5ccccc5)C4)nc32)CC1 [Example 742, (1S,4s)-4-(8-(2-chloro-4,6-difluorophenylamino)-2-((R)-1-phenylpiperidin-3-ylamino)-9H-purin-9-yl)cyclohexanecarboxamide] |  | IC50 [1]: > 1000 nM
COC(=O)N1CCCC(Nc2ncc3nc(Nc4c(F)cccc4Cl)n([C@H]4CC[C@@H](C(N)=O)CC4)c3n2)C1 (stereo partly drawn) [Example 406, (R)-methyl 3-(9-((1s,4S)-4-carbamoylcyclohexyl)-8-(2-chloro-6-fluorophenylamino)-9H-purin-2-ylamino)piperidine-1-carboxylate] |  | IC50 [3]: > 1000 nM
CC(=O)N1CCC(Nc2ncc3nc(Nc4c(Cl)cc(Cl)cc4Cl)n([C@H]4CC[C@@H](C(N)=O)CC4)c3n2)CC1 [Example 197, (1s,4s)-4-(2-(1-acetylpiperidin-4-ylamino)-8-(2,4,6-trichlorophenylamino)-9H-purin-9-yl)cyclohexanecarboxamide] | > 1000 | 
NC(=O)[C@H]1CC[C@@H](n2c(Nc3cccc(Cl)c3F)nc3cnc(N[C@@H]4CCC[C@H]4O)nc32)CC1 [Example 263, (1S,4s)-4-(8-(3-chloro-2-fluorophenylamino)-2-((1R,2R)-2-hydroxycyclopentylamino)-9H-purin-9-yl)cyclohexanecarboxamide] | > 1000 | 
NC(=O)[C@H]1CC[C@@H](n2c(Nc3ccc(Cl)c(F)c3F)nc3cnc(N[C@H]4COC[C@@H]4O)nc32)CC1 [Example 317, (1R,4s)-4-(8-(4-chloro-2,3-difluorophenylamino)-2-((3S,4R)-4-hydroxytetrahydrofuran-3-ylamino)-9H-purin-9-yl)cyclohexanecarboxamide] | 500 to 1000 | 
NC(=O)[C@H]1CC[C@@H](n2c(Nc3c(F)cc(Cl)cc3F)nc3cnc(NC4CCCOCC4)nc32)CC1 (stereo partly shown) [Example 540, (1s,4s)-4-(8-(4-chloro-2,6-difluorophenylamino)-2-(oxepan-4-ylamino)-9H-purin-9-yl)cyclohexanecarboxamide] |  | IC50 [3]: 250 to 500 nM
NC(=O)[C@H]1CC[C@@H](n2c(Nc3cc(F)c(F)cc3Cl)nc3cnc(NC4CCOCC4)nc32)CC1 [Example 100, (1s,4s)-4-(8-(2-chloro-4,5-difluorophenylamino)-2-(tetrahydro-2H-pyran-4-ylamino)-9H-purin-9-yl)cyclohexanecarboxamide] | > 1000 | 
NC(=O)[C@H]1CC[C@@H](n2c(Nc3c(Cl)cc(Cl)cc3Cl)nc3cnc(N[C@H]4CCCC[C@@H](O)C4)nc32)CC1 [Example 444, (1R,4s)-4-(2-((1S,3R)-3-hydroxycycloheptylamino)-8-(2,4,6-trichlorophenylamino)-9H-purin-9-yl)cyclohexanecarboxamide] |  | IC50 [3]: > 1000 nM
NC(=O)[C@H]1CC[C@@H](n2c(Nc3c(F)cc(Cl)cc3Cl)nc3cnc(NC[C@@H]4CCCC[C@@H]4O)nc32)CC1 [Example 655, (1R,4s)-4-(8-(2,4-dichloro-6-fluorophenylamino)-2-(((1S,2S)-2-hydroxycyclohexyl)methylamino)-9H-purin-9-yl)cyclohexanecarboxamide] |  | IC50 [1]: > 1000 nM
CS(=O)(=O)N1CCC(Nc2ncc3nc(Nc4c(Cl)cc(Cl)cc4Cl)n([C@H]4CC[C@@H](C(N)=O)CC4)c3n2)CC1 [Example 292, (1s,4s)-4-(2-(1-(methylsulfonyl)piperidin-4-ylamino)-8-(2,4,6-trichlorophenylamino)-9H-purin-9-yl)cyclohexanecarboxamide] | 500 to 1000 | 
C[C@@H]1CC[C@@H](Nc2ncc3nc(Nc4ccc(Cl)cc4Cl)n([C@H]4CC[C@@H](C(N)=O)CC4)c3n2)C[C@H]1O [Example 391, (1S,4s)-4-(8-(2,4-dichlorophenylamino)-2-((1R,3R,4R)-3-hydroxy-4-methylcyclohexylamino)-9H-purin-9-yl)cyclohexanecarboxamide] | > 1000 | 
C[C@]1(C(N)=O)CC[C@@H](n2c(Nc3c(F)cc(C#N)cc3Cl)nc3cnc(N[C@@H]4CCC[C@@H](O)C4)nc32)CC1 [Example 623, (1S,4s)-4-(8-(2-chloro-4-cyano-6-fluorophenylamino)-2-((1R,3R)-3-hydroxycyclohexylamino)-9H-purin-9-yl)-1-methylcyclohexanecarboxamide] |  | IC50 [1]: 250 to 500 nM
C[C@@H]1COCC[C@H]1Nc1ncc2nc(Nc3c(F)cc(F)cc3Cl)n([C@H]3CC[C@@H](C(N)=O)CC3)c2n1 [Example 723, (1S,4s)-4-(8-(2-chloro-4,6-difluorophenylamino)-2-((3S,4R)-3-methyltetrahydro-2H-pyran-4-ylamino)-9H-purin-9-yl)cyclohexanecarboxamide] |  | IC50 [1]: < 250 nM
CC(C)N1CCC[C@@H](Nc2ncc3nc(Nc4c(F)cc(Cl)cc4F)n([C@H]4CC[C@@H](C(N)=O)CC4)c3n2)C1 [Example 740, (1S,4s)-4-(8-(4-chloro-2,6-difluorophenylamino)-2-((R)-1-isopropylpiperidin-3-ylamino)-9H-purin-9-yl)cyclohexanecarboxamide] |  | IC50 [1]: > 1000 nM
C[C@]1(C(N)=O)CC[C@@H](n2c(Nc3c(Cl)cc(F)cc3Cl)nc3cnc(N[C@H]4CC[C@H](O)C4)nc32)CC1 [Example 647, (1R,4s)-4-(8-(2,6-dichloro-4-fluorophenylamino)-2-((1S,3S)-3-hydroxycyclopentylamino)-9H-purin-9-yl)-1-methylcyclohexanecarboxamide] |  | IC50 [1]: 500 to 1000 nM
NC(=O)[C@H]1CC[C@@H](n2c(Nc3c(Cl)cc(C(F)(F)F)cc3Cl)nc3cnc(NC4CCCOCC4)nc32)CC1 (stereo partly shown) [Example 544, (1s,4s)-4-(8-(2,6-dichloro-4-(trifluoromethyl)phenylamino)-2-(oxepan-4-ylamino)-9H-purin-9-yl)cyclohexanecarboxamide] |  | IC50 [3]: > 1000 nM
NC(=O)[C@H]1CC[C@@H](n2c(Nc3c(Cl)cc(Cl)cc3Cl)nc3cnc(N[C@@H]4CCC[C@H](O)C4)nc32)CC1 [Example 353, (1S,4s)-4-(2-((1R,3S)-3-hydroxycyclohexylamino)-8-(2,4,6-trichlorophenylamino)-9H-purin-9-yl)cyclohexanecarboxamide] | 250 to 500 | 
NC(=O)[C@H]1CC[C@@H](n2c(Nc3c(Cl)cc(F)cc3Cl)nc3cnc(N[C@@H]4CCC[C@H]4O)nc32)CC1 [Example 256, (1S,4s)-4-(8-(2,6-dichloro-4-fluorophenylamino)-2-((1R,2R)-2-hydroxycyclopentylamino)-9H-purin-9-yl)cyclohexanecarboxamide] | > 1000 | 

Further lines, with some results ahead:

IC50 [2] [nM] | Structure (SMILES) | also measured
250 to 500 | NC(=O)[C@H]1CC[C@@H](n2c(Nc3c(F)ccc(F)c3Cl)nc3cnc(NC4CCOCC4)nc32)CC1 [Example 90, (1s,4s)-4-(8-(2-chloro-3,6-difluorophenylamino)-2-(tetrahydro-2H-pyran-4-ylamino)-9H-purin-9-yl)cyclohexanecarboxamide] | 
> 1000 | CS(=O)(=O)N1CCC(Nc2ncc3nc(Nc4c(Cl)cc(F)cc4Cl)n([C@H]4CC[C@@H](C(N)=O)CC4)c3n2)CC1 [Example 297, (1s,4s)-4-(8-(2,6-dichloro-4-fluorophenylamino)-2-(1-(methylsulfonyl)piperidin-4-ylamino)-9H-purin-9-yl)cyclohexanecarboxamide] | 
> 1000 | NC(=O)[C@H]1CC[C@@H](n2c(Nc3c(F)cc(F)cc3Cl)nc3cnc(N[C@@H]4CC[C@@H](O)C4)nc32)CC1 [Example 210, (1S,4s)-4-(8-(2-chloro-4,6-difluorophenylamino)-2-((1R,3R)-3-hydroxycyclopentylamino)-9H-purin-9-yl)cyclohexanecarboxamide] | 
> 1000 | CC[C@@H](CO)Nc1ncc2nc(Nc3c(Cl)cccc3Cl)n([C@H]3CC[C@@H](C(N)=O)CC3)c2n1 [Example 153, (1R,4s)-4-(8-(2,6-dichlorophenylamino)-2-((S)-1-hydroxybutan-2-ylamino)-9H-purin-9-yl)cyclohexanecarboxamide] | 
> 1000 | CC(C)Nc1ncc2nc(Nc3ccc(Cl)cc3Cl)n([C@H]3CC[C@@H](C(N)=O)CC3)c2n1 [Example 96, (1s,4s)-4-(8-(2,4-dichlorophenylamino)-2-(isopropylamino)-9H-purin-9-yl)cyclohexanecarboxamide] | 
> 1000 | CC1(C)CC[C@@H](Nc2ncc3nc(Nc4c(F)cc(F)cc4F)n([C@H]4CC[C@@H](C(N)=O)CC4)c3n2)C[C@H]1O [Example 381, (1S,4s)-4-(2-((1R,3R)-3-hydroxy-4,4-dimethylcyclohexylamino)-8-(2,4,6-trifluorophenylamino)-9H-purin-9-yl)cyclohexanecarboxamide] | 
250 to 500 | N#Cc1cc(F)c(Nc2nc3cnc(NC4CCCC4)nc3n2[C@H]2CC[C@@H](C(N)=O)CC2)c(Cl)c1 [Example 369, (1s,4s)-4-(8-(2-chloro-4-cyano-6-fluorophenylamino)-2-(cyclopentylamino)-9H-purin-9-yl)cyclohexanecarboxamide] | 
500 to 1000 | CC[C@H](C)Nc1ncc2nc(Nc3c(F)cc(Cl)cc3Cl)n([C@H]3CC[C@@H](C(N)=O)CC3)c2n1 [Example 339, (1R,4s)-4-(2-(sec-butylamino)-8-(2,4-dichloro-6-fluorophenylamino)-9H-purin-9-yl)cyclohexanecarboxamide] | 
